Measured values published in US10927375B1, “Compositions and methods to reduce beta-agonist-mediated tachyphylaxis” (University of South Florida, priority 2018, dated 2021).
“Also recorded” adds a separate entry of the source.

Key:
[1] = system: ADRB2 mRNA; test: ADRB2 mRNA in D9 HASM cells by RT-PCR; conditions: 18 h ISO
Procedure: (§1) The immortalized HASM cell line denoted D9 hTERT was developed as described (22), and was grown in the same manner. […] In some experiments, pretreatment with 10 μM N-(2-[p-bromocinnamylamino]ethyl)-5-isoquinoline-sulfonamide (H89) occurred for 1 h prior to the aforementioned treatments.
RT-PCR was performed using a LightCycler 96 system (Roche, Basel, Switzerland) and TaqMan polymerase (Applied Biosystems, Foster City, Calif., USA) as previously described (26, 27). The RT reactions utilized Oligo d(T)16 for ADRB2 and glyceraldehyde-3 phosphate dehydrogenase (control), and the primers included with the TaqMan MicroRNA assay (Applied Biosystems) for the reaction with let-7f and U6 snRNA (control). […] Quantitation of transcripts was made by the 22DCt method (28, 29).

[2] = system: let-7f miRNA expression in HASM cells; test: let-7f miRNA expression in cultured HASM cells by quantitative RT-PCR; assay type: cell-based, human; conditions: for change in let-7f miRNA expression after treatment with the agent: 18 h at 37° C., asthmatic and nonasthmatic HASM cells, ISO 30 μM, forskolin 10 mM, dibutyryl-cAMP 100 mM as printed
[3] = system: β2AR; conditions: stably transfected HEK 293 cells greatly overexpressing β2ARs (ref. 40); cited from earlier work
[4] = system: β2AR; conditions: incubating cells with dibutyryl-cAMP and forskolin (ref. 37); cited from earlier work
[5] = molecular target: β2AR (Homo sapiens, UniProt P07550); test: β2AR protein expression / agonist-promoted down-regulation in HASM cells (Western blot, radioligand binding)
Procedure: as §1
HASM cells in 6-well plates were transfected using Lipofectamine 2000 (Thermo Fisher Scientific, Waltham, Mass., USA) as described in detail elsewhere (22, 23). Cells were in a final volume of 1.0 ml and the indicated constructs along with 10 ml of Lipofectamine 2000 were added to initiate the transfection. The constructs and final concentrations were: cAMP receptor element-binding protein [CREB (in pcDNA3, 4 μg/ml)], siCREB (40 nM of siGenome SmartPool; Dharmacon, Lafayette, Colo., USA), and to inhibit let-7f, a competitive inhibitor (Dharmacon) that binds to let-7f (24, 25) at a final concentration of 40 nM (24, 25). The cells were studied 48 h after transfection. […] Secondary antibody for chemoluminescence (Thermo Fisher Scientific) was at a titer of 1:10,000. ChemiDoc (Bio-Rad, Hercules, Calif., USA) was used to detect bands, which were quantitated using ImageJ (National Institutes of Health, Bethesda, Md., USA).
Radioligand binding. Confluent cells in 10 cm dishes were washed 3 times with cold PBS followed by disruption with a cell scraper in buffer consisting of 5 mM Tris and 2 mM EDTA at 4° C. (pH 7.4). Crude membranes were collected by centrifugation at 30,000 g for 15 min at 4° C., and resuspended in assay buffer consisting of 75 mM Tris, 12 mM MgCl2, and 5 mM EDTA at 25° C. (pH 7.4). […] After incubation for 1.5 h at 25° C., bound radioligands were separated from free radioligands by rapid dilution and vacuum filtration with buffer containing 15 ml of 5 mM Tris and 2 mM EDTA at 25° C. (pH 7.4) over Whatman GF/C filters (GE Healthcare Bio-Sciences, Piscataway, N.J., USA) using a Brandel cell harvester (Brandel, Gaithersberg, Md., USA). Specific binding was divided by the added cell membrane protein and β2AR expression stated as femtomoles per milligram.

CC(C)NCC(O)c1ccc(O)c(O)c1 (centres unmarked) [ISO, isoproterenol]
change in ADRB2 mRNA due to ISO exposure [1]: not altered; also recorded: not found to be changed
change in let-7f miRNA expression after treatment with the agent [2]: increased
increase in let-7f miRNA expression ([2]; 18 h exposure to ISO (30 μM), both asthmatic and non-asthmatic HASM cells): ~3 fold

CCCC(=O)Nc1ncnc2c1ncn2[C@@H]1O[C@@H]2COP(=O)(O)O[C@H]2[C@H]1OC(=O)CCC [dibutyryl-cAMP]
degree of β2AR down-regulation compared with that of ISO [3]: relatively small degree
change in let-7f miRNA expression after treatment with the agent [2]: increased
β2AR down-regulation relative to β-agonists [4]: nearly the same extent

O=S(=O)(NCCNCC=Cc1ccc(Br)cc1)c1cccc2cnccc12 [H89]
effect of H89 on ISO-promoted increase in let-7f ([2]; 10 μM H89 pretreatment 1 h, then ISO 18 h, asthmatic and non-asthmatic HASM cells): blocked; also recorded: inhibited
effect of H89 on forskolin-promoted increase in let-7f ([2]; 10 μM H89 pretreatment 1 h, then forskolin 18 h, asthmatic and non-asthmatic HASM cells): blocked; also recorded: inhibited
effect of H89 on dibutyryl-cAMP-promoted increase in let-7f ([2]; 10 μM H89 pretreatment, then dibutyryl-cAMP 18 h, HASM cells): blocked

B1: let-7f inhibitor: competitive inhibitor (Dharmacon) that binds to let-7f; Cat. No. IH-30048-07, SEQ ID NO: 14 (nucleic acid)
chain: UCAGAGUGAGGUAGUAGAUUGUAUAGUUGUGGGGUAGUGAUUUUACCCUGUUCAGGAGAUAACUAUACAAUCUAUUGCCUUCCCUGA
modifications: commercial inhibitor, chemistry not given here
attenuation of agonist-promoted β2AR down-regulation ([5]; let-7f or CREB silenced, chronic agonist): about 50%
effect on ISO-promoted β2AR down-regulation ([5]; transfection 40 nM 48 h, then ISO 18 h): attenuates; also recorded: markedly attenuated
